Experimental data taken from a melting point compilation (Tetko et al.).

Row | SMILES | melting point
1 | Oc1c(Cl)c(Cl)c(O)c(Cl)c1Cl | 239 °C
2 | Cc1ccc(Cl)nn1 | 57 °C
3 | Oc1ccc2ncccc2c1 | 190 to 195 °C
4 | Cc1ccc([C@@H]2CC(=O)[C@@H](c3ccccc3)[C@H](c3ccc(C)cc3)N2)cc1 | 148 °C
5 | Cc1ccccc1N1CSc2nnc(-c3cccnc3)n2C1 | 202 °C
6 | c1csc(-c2cc[nH]n2)c1 | 97 to 99 °C
7 | OCCCCCCCCCCCBr | 46 °C
8 | CN(C)c1ccc(-c2ccc(N(C)C)cc2)cc1 | 194 °C
9 | CC(=O)N=C1C=CC(=O)C=C1 | 74.5 °C
10 | C=CCNC(=O)C(C(F)(F)F)C(F)(F)F | 117 °C
11 | Cc1ccc(C#N)cn1 | 85 °C
12 | C#CCOCc1cc(COCC#C)c(COCC#C)cc1COCC#C | 66 °C
13 | O=C(O)c1cc(Br)ccc1O | 170 °C
14 | C1=CC=CC=CC=C1 | -4.7 °C
15 | CCCOC1CCC2C3CCC4=CC(O)CCC4(C)C3CCC12C (stereo not given) | 123 to 127 °C
16 | Cc1cc(O)c(Cl)cc1Cl | 73 °C
17 | Cc1ccc2c(c1)CCCN2 | 35 °C
18 | O=C1C(=O)c2c3ccccc3cc3cccc1c23 | 268 to 270 °C
19 | Cc1cc(CCl)c(C)cc1CCl | 132 °C
20 | O=S(=O)(Cl)c1cccc(Cl)c1Cl | 61 to 63 °C
21 | Nc1ccc2scnc2c1 | 55 to 59 °C
22 | N#Cc1ccc(N)c(OC(F)(F)F)c1 | 72 °C
23 | Fc1cccc(Br)n1 | 32 °C

Row | SMILES | melting point
24 | COc1cc(OC)c(C)c(OC)c1 | 28 °C
25 | CC12CCCCC1(C)C1CCC3(C)C(O)CCC3(C)C1CC2 (stereo not given) | 167 °C
26 | C=C1CCC2(O)C3Cc4ccc(O)c5c4C2(CCN3CC2CC2)C1O5 (stereo not given) | 189 °C
27 | CC1(C)O[C@@H](CP(c2ccccc2)c2ccccc2)[C@@H](CP(c2ccccc2)c2ccccc2)O1 | 86 to 88 °C
28 | Cc1ccc(-c2ccc(C=C3C(=O)NC(=O)NC3=O)o2)cc1 | 265 °C
29 | O=C(NCc1ccccn1)C(F)(F)F | 75 °C
30 | Cc1coc2ccccc2c1=O | 68 °C
31 | CCOC(=O)c1ccccc1C(=C1C=C(Br)C(=O)C(Br)=C1)c1cc(Br)c(O)c(Br)c1 | 208 to 211 °C
32 | O=C(Oc1c(F)c(F)c(F)c(F)c1F)c1ccc(-c2cnco2)cc1 | 141 to 143 °C
33 | O=c1[nH]sc2ccccc12 | 156 °C
34 | CC1CCC(C)(CNc2ccccc2)C1(C)C (stereo not given) | 59 °C
35 | Nc1nsc2ccc([N+](=O)[O-])cc12 | 200 °C
36 | NC(=S)C(N)=S | 170 °C
37 | COc1ccc(C2C(C#N)=C(N)Oc3[nH]nc(C(F)(F)F)c32)cc1 (stereo not given) | 204 °C
38 | NCc1ccc(-c2nccs2)cc1 | 39 to 42 °C
39 | OCCC(F)(F)C(F)(F)C(F)(F)C(F)(F)F | -58 °C
40 | O=C(O)C(Cc1ccccc1)C(=O)O | 121 °C
41 | Nc1ccc(C(F)(F)F)nc1 | 39 to 40 °C
42 | N#Cc1ccc(-c2nccs2)cc1 | 102 to 103 °C
43 | FC(Cl)(Cl)C(Cl)(Cl)Cl | 101 °C
44 | O=C(CCl)c1ccc(Cl)cc1Cl | 54 °C
45 | CCOC(=O)c1cc2c(=O)oc3ccccc3c2[nH]c1=O | 313 to 315 °C
46 | OCC(O)CN1CCCC1 (stereo not given) | 43 to 48 °C

Row | SMILES | melting point
47 | CCCc1ccccc1/C=N/Nc1ccc([N+](=O)[O-])cc1[N+](=O)[O-] | 228 °C
48 | FC(F)(F)c1nnc(S)n1/N=C/c1ccccc1 | 233 °C
49 | O=C1OC(=O)c2cc3ccccc3cc21 | 249 °C
50 | COc1ccc(C(=S)Nc2ccccc2)cc1 | 157 °C
51 | COC1=C(OC)C(C(COS(C)(=O)=O)OS(C)(=O)=O)OC1=O (stereo not given) | 77 to 79 °C
52 | O=C(Nc1ccc(Cl)cc1)c1cccnc1Cl | 148 to 149 °C
53 | Cc1cc(C)c([N+](=O)[O-])c(F)c1 | 56 °C
54 | CCC#CCCCCCCCCCCCCCC | 2 °C
55 | COc1cc(F)c(Br)cc1F | 63 °C
56 | O=C(O)CCCCCC(=O)c1ccccc1 | 85 °C
57 | C=C1CC(=O)OC1=O | 69 °C
58 | ON=Cc1sccc1Oc1ccccc1 | 105 to 106 °C
59 | O=Cc1ccc(Br)cc1 | 67 °C
60 | Cc1cccc(S)c1 | -20 °C
61 | Cc1ccc(S(=O)(=O)Nc2ccccc2C)cc1 | 110 °C
62 | O=Cc1c(F)c(F)c(F)c(F)c1F | 25.5 °C
63 | OC(c1c(F)c(F)c(F)c(F)c1F)c1c(F)c(F)c(F)c(F)c1F | 76 to 80 °C
64 | Nc1ccc(-c2ccc(N)c(Cl)c2)cc1Cl | 132 °C
65 | N#CC1CC2C=CC1C2 (stereo not given) | 13 °C
66 | Sc1nc2cc(Cl)ccc2[nH]1 | 300 °C
67 | CN1CCC23c4c5ccc(O)c4OC2C(=O)CCC3C1C5 (stereo not given) | 266 °C
68 | CN(N=O)c1ccccc1 | 14.7 °C
69 | Cc1cc(I)c(C)c(C)c1C | 31 °C

Row | SMILES | melting point
70 | CC(=O)c1ccc(Cc2ccccc2)cc1 | 38 to 40 °C
71 | C[C@H]([C@@H](O)c1ccccc1)N1CCCC1 | 45 °C
72 | N#Cc1cccc(C(=O)Cl)c1 | 38 to 44 °C
73 | Cc1cc(C)c(CCl)c(C)c1 | 40 °C
74 | CC(=O)OC1CCC2(C)C(=CCC3C4CC(C)C(=O)C4(C)CCC32)C1 (stereo not given) | 141 °C
75 | CC(=O)OC1CCC2C3CCC4=CC(O)CCC4(C)C3CCC12C (stereo not given) | 96 °C
76 | O=C(O)c1ccccc1C(=O)O | 200 to 205 °C
77 | CC1(C)C(=O)OC2=C(CCCC2=Cc2ccccc2)C1c1ccccc1 (stereo not given) | 155 to 157 °C
78 | CC(=O)c1ccc(C#Cc2ccccc2)cc1 | 101 °C
79 | CN(Cc1cc(Br)cc(Br)c1N)C1CCCCC1 | 238 °C
80 | NS(=O)(=O)c1cc2c(s1)SCCC2=O | 222 °C
81 | CC(=O)N1CCN(c2ccc(OCC3COC(Cn4ccnc4)(c4ccc(Cl)cc4Cl)O3)cc2)CC1 (stereo not given) | 146 °C
82 | CN(C)Cc1c[nH]c2ccccc12 | 138 °C
83 | O=[N+]([O-])c1ccc2c(c1)c(CO)cn2Cc1ccccc1 | 104 to 106 °C
84 | O=C(c1ccccn1)C(O)c1ccccn1 (stereo not given) | 151 to 158 °C
85 | O=C(O)c1cccc(F)c1O | 147 °C
86 | Cc1cc(OC(=O)N(C)C)n(-c2ccccc2)n1 | 50 °C
87 | CCC(Br)C(=O)O (stereo not given) | -4 °C
88 | Cc1cc(C)cc(C=O)c1 | 8 to 10 °C
89 | OCC1OC(OCC2OC(O)(CO)C(O)C2O)C(O)C(O)C1O (stereo not given) | 125 to 128 °C
90 | S=C=Nc1ccc(Cl)cc1Cl | 38 °C
91 | Clc1cc2oc3c(Cl)cc(Cl)c(Cl)c3c2cc1Cl | 237 °C

Continued, values first:

Row | melting point | SMILES
92 | -45 °C | CC1(N)CCC(C(C)(C)N)CC1 (stereo not given)
93 | 122 to 126 °C | O=C(NC(CO)C(=O)O)OCc1ccccc1 (racemic)
94 | 147 to 148 °C | O=C(O)C12CC3CC(CC(Br)(C3)C1)C2
95 | -56 °C | CCCCCCC(=O)OC
96 | 76 to 78 °C | CC(C)(C)c1ccc(S(=O)(=O)NCCBr)cc1
97 | 217 to 218 °C | NN=C(/C(=N/N)c1ccccc1)c1cccc2ccccc12
98 | 248 to 250 °C | Cc1cc(O)c(Cc2c(O)cc(C)oc2=O)c(=O)o1
99 | 273 to 275 °C | CCCCc1c(C)nc(N)nc1O
100 | 116 to 117 °C | NC(=S)COc1ccccc1Cl
101 | 87 °C | CC(=O)C(N=Nc1ccccc1)C(C)=O
102 | 240 °C | NC(CO)C(=O)O (racemic)
103 | 98 to 100 °C | CNc1ncc(C(F)(F)F)cc1[N+](=O)[O-]
104 | 83 °C | COC(=O)c1c(C=O)ccc(OC)c1OC
105 | 124 °C | COc1c(OC)c(OC(C)=O)c2cc(C#N)ccc2c1OC(C)=O
106 | 125 to 127 °C | Oc1ccc(O)c(C=NCCN=Cc2cc(O)ccc2O)c1
107 | 176 °C | CC(=O)Nc1cc([N+](=O)[O-])ccc1Nc1ccc(C)cc1
108 | 155 to 160 °C | COC(=O)C(=Cc1ccc(O)cc1)C(=O)OC
109 | 143 °C | COC(=O)CCc1ccc2c(c1)NC(=O)CC2
110 | 152 to 156 °C | CC(=O)Oc1ccc2c(C)cc(=O)oc2c1
111 | 217 to 218 °C | CC(C)(C)c1cc(C(=S)NC2CCCCC2)cc(C(C)(C)C)c1O
112 | 102 to 104 °C | Cc1cccc(Cn2nc(C(C)(C)C)cc2C(=O)NN)c1
113 | 185 °C | CNN=C(N)C(S)=NNC

Row | melting point | SMILES
114 | 113 °C | CCCCCCCCc1ccc(NC(=O)c2ccc(C)cc2)cc1
115 | 85 °C | CNc1nc(NC(C)C)nc(SC)n1
116 | 108 °C | CC1(C)C(C=C(Cl)C(F)(F)F)C1C(=O)O (stereo not given)
117 | 169 °C | CNS(=O)(=O)Cc1ccc2[nH]cc(CCN(C)C)c2c1
118 | 104 °C | COC(=O)C(C#N)=C(SCc1ccccc1)SCc1ccccc1
119 | 92 to 94 °C | CC1(C)CCc2cc(S(=O)(=O)Cl)ccc2O1
120 | 151 °C | COc1ccc(-c2csc(/C(C#N)=N\Nc3ccc(C)cc3)n2)cc1
121 | 189 °C | CCOC(=O)C1=C(C)NC(=O)NC1c1ccc2c(c1)OCO2 (stereo not given)
122 | 38 °C | Oc1c(F)c(F)cc(F)c1F
123 | 170 °C | CC(=O)C1CCC2C3C=CC4=CC(=O)CCC4(C)C3CCC12C (stereo not given)
124 | 94 to 99 °C | CCCCCCc1ccc(C(=O)O)cc1
125 | 107 to 109 °C | Cc1ccc(C(N)=O)cc1C
126 | 130 to 132 °C | NC(=O)C1CCN(C(=O)OCc2ccccc2)CC1
127 | 154 to 156 °C | Cc1cc(=O)oc(C)c1C(=O)O
128 | 138 to 140 °C | CC(=O)Cc1ncn(-c2cc(C)on2)n1
129 | -25 °C | CC(=O)N(C)C(C)=O
130 | 173 °C | N#C/C(=N/Nc1cccc(C(F)(F)F)c1)C(=O)c1cccs1
131 | 107 to 109 °C | CCNc1cc(NC(C)=O)ccc1C
132 | 100 to 105 °C | CC(c1ccccc1)C(NC(=O)OC(C)(C)C)C(=O)O (stereo not given)
133 | 177 to 183 °C | Cc1cc([N+](=O)[O-])cc(Br)c1N
134 | 89 to 90 °C | OCc1cccc2cccc(Br)c12
135 | 32 °C | CCN(CC)c1ccc(N=C=S)cc1
